The Ki is a measure of affinity in units of concentration, obtained from inhibition or displacement.

The results in this text go back to ChEMBL document CHEMBL1145925, “Carbonic anhydrase inhibitors: inhibition of transmembrane, tumor-associated isozyme IX, and cytosolic isozymes I and II with aliphatic sulfamates” (J Med Chem, 2003).

Structures are written as SMILES. “And” between values parts separate entries of the source, which are not always exact repeats. Equal values may be shown once.

In experiment [1] the target is Carbonic anhydrase 2 (Homo sapiens, UniProt P00918).
Experiment [2] deals with Carbonic anhydrase 1 (Homo sapiens, UniProt P00915).
Carbonic anhydrase 1, sequence (P00915 whole entry): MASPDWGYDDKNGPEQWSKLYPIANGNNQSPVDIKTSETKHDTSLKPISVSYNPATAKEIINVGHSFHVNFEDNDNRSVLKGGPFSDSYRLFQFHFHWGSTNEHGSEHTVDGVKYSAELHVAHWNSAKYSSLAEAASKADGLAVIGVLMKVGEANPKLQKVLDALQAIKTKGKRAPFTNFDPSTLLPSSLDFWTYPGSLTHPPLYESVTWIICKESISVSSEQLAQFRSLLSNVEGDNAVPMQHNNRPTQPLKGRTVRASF
Experiment [3] addresses Carbonic anhydrase 9 (Homo sapiens, UniProt Q16790).

Consider `C#CCCOS(N)(=O)=O`, for which the Ki in experiment [1] turned out to be 5900 nM; in experiment [2], 990 µM; in experiment [3] it was 633 nM.
For `NS(=O)(=O)OCC1c2ccccc2-c2ccccc21`, the results for the Ki in experiment [1], in experiment [2] and in experiment [3] were 4500 nM, 38 µM and more than 1000 nM, respectively.
On the same counts, the results for `NS(=O)(=O)OCC(F)(F)F` are 845 nM, 7.8 µM and 458 nM.
On the same counts, the results for `Cc1ccc(COS(N)(=O)=O)cc1` are 2.7 nM, 0.1 µM and 13 nM.
On the same counts, the results for `NS(=O)(=O)OCCCCl` are 570 nM, 4.62 µM and more than 1000 nM.
For `C[C@]12CCC(OS(N)(=O)=O)CC1=C[C@@H](O)C1C2CC[C@]2(C)C(=O)CCC12` (stereo partly specified), the values for the Ki in experiment [1], in experiment [2] and in experiment [3] were 13 nM, 0.4 µM and 65 nM, respectively.
Regarding `C=CCCOS(N)(=O)=O`, the inhibitory constant (Ki) in experiment [1] came out at 883 nM; in experiment [2] it was 800 µM; in experiment [3], 386 nM.
Turning to `CC(C)CCC[C@@H](C)[C@H]1CCC2C3CC=C4C[C@@H](OS(N)(=O)=O)CC[C@]4(C)C3CCC21` (stereo partly specified), the Ki in experiment [1] was more than 10000 nM; in experiment [2], more than 1000 µM; in experiment [3], more than 1000 nM.
For the compound `NS(=O)(=O)OC(C(F)(F)F)C(F)(F)F`, the values for the Ki in experiment [1], in experiment [2] and in experiment [3] were 1580 nM, 3.54 µM and 279 nM, respectively.
Consider `NS(=O)(=O)OCc1ccc(-c2ccccc2)cc1`, for which the Ki is more than 1000 µM in experiment [2] and more than 1000 nM in experiment [3].
As for `C[C@]12CCC(OS(N)(=O)=O)CC1=CC(=O)C1C2CC[C@]2(C)C(=O)CCC12` (stereo partly specified), the Ki in experiment [1] was 23 nM; in experiment [2], 0.41 µM; in experiment [3] it was 76 nM.
As to `CCCCCCCCCCOS(N)(=O)=O` [DECYL SULFAMATE], the inhibitory constant (Ki) in experiment [3] was 23 nM and 142 nM.
Take `NS(=O)(=O)OCc1ccccc1` [SULFAMIC ACID BENZYL ESTER]: the Ki in experiment [1] came to 3.4 nM; in experiment [2] it was 0.76 µM; in experiment [3], 14 nM.
On the same counts, the results for `CCCCOS(N)(=O)=O` [SULFAMIC ACID BUTYL ESTER] are 70 nM, 3.1 µM and more than 1000 nM.
For `NS(=O)(=O)OC1CCCCC1` [SULFAMIC ACID CYCLOHEXYL ESTER], the Ki in experiment [1] is 60 nM; in experiment [2] it was 59 µM; in experiment [3], more than 1000 nM.
On the same counts, the results for `NS(=O)(=O)OC1CCCC1` [SULFAMIC ACID CYCLOPENTYL ESTER] are more than 10000 nM, more than 1000 µM and more than 1000 nM.
In the case of `CCCCCCCCCCCCOS(N)(=O)=O` [SULFAMIC ACID DODECYL ESTER], the Ki was 10 nM in experiment [1], 0.27 µM in experiment [2] and 9 nM in experiment [3].
As to `CCOS(N)(=O)=O` [SULFAMIC ACID ETHYL ESTER], the Ki in experiment [1] is 5500 nM; in experiment [2], 38 µM; in experiment [3], more than 1000 nM.
On to `CCCCCCCCCCCCCCCCOS(N)(=O)=O` [SULFAMIC ACID HEXADECYL ESTER], for which the Ki came to 97 nM in experiment [1] and 58 µM in experiment [2].
Regarding `CC(C)OS(N)(=O)=O` [SULFAMIC ACID ISOPROPYL ESTER], the Ki in experiment [1] was more than 10000 nM; in experiment [2] it was 690 µM; in experiment [3], more than 1000 nM.
In the case of `COS(N)(=O)=O` [SULFAMIC ACID METHYL ESTER], the Ki in experiment [1] is 6000 nM; in experiment [2], 40 µM; in experiment [3], more than 1000 nM.
For the compound `CCCCCCCCCCCCCCCCCCOS(N)(=O)=O` [SULFAMIC ACID OCTADECYL ESTER], the Ki in experiment [1] is 129 nM; in experiment [2] it was 65 µM; in experiment [3], 120 nM.
Turning to `CCCCCOS(N)(=O)=O` [SULFAMIC ACID PENTYL ESTER], the values for the inhibitory constant (Ki) in experiment [1] and in experiment [2] were 58 nM and 0.71 µM, respectively.
`NS(=O)(=O)OCCc1ccccc1` [SULFAMIC ACID PHENETHYL ESTER]: the Ki amounted to 1.1 nM in experiment [1], 0.41 µM in experiment [2] and 12 nM in experiment [3].
Take `CCCOS(N)(=O)=O` [SULFAMIC ACID PROPYL ESTER]: the Ki in experiment [1] was 750 nM; in experiment [2], 3.7 µM; in experiment [3], more than 1000 nM.
On the same counts, the results for `CCCCCCCCCCCCCCOS(N)(=O)=O` [SULFAMIC ACID TETRADECYL ESTER] are 87 nM, 0.15 µM and 15 nM.
Take `CCCCCCCCCCCOS(N)(=O)=O` [SULFAMIC ACID UNDECYL ESTER]: the Ki was found to be 4.7 nM in experiment [1], 0.43 µM in experiment [2] and 17 nM in experiment [3].
